In patent US20210147807A1, “METHODS FOR PURIFYING ENDODERM AND PANCREATIC ENDODERM CELLS DERIVED FROM HUMAN EMBRYONIC STEM CELLS” (HELMHOLTZ ZENTRUM MUNCHEN - DEUTSCHES FORSCHUNGSZENTRUM FUR …, priority 2017, published 2021):

Key:
[1] = test system: CD177+ and CD275+ ADE subpopulations in the bulk CXCR4+ DE population; experiment: Modulation of ADE differentiation efficiency by BMP/TGF-β inhibitors during endoderm induction, FACS percentage of CD177+ and CD275+ ADE; format: cell-based, human; conditions: for percentage of CD275+ DE differentiation: combination of 2.5 μM DMH1 and 1 μM SB431542, endoderm differentiation until D4
Method: I-K) Pie charts representing the percentage of CD177+ and CD275+ ADE subpopulations generated using no inhibition of pathways (I, condition 1), with high inhibition of BMP signalling using BMP inhibitor DMH1 (J, condition 2) and with moderate BMP inhibition and low TGF-β inhibition (K, condition 3).
(§1) H9, Mel1-NKX6.1-GFPand iPSCs were cultured on 1:30 diluted Geltrex (Invitogen, U.K, Cat #A1413302) in StemMACS iPS-Brew medium (Miltenyi Biotech, Germany, Cat #130-104-368). At ^˜70-80% confluency, cultures were rinsed with 1×DPBS without Mg2+ and Ca2+ (Invitrogen, Cat #14190) followed by incubation with 0.5 mM EDTA (Applichem, Cat #12604-021) for 2-3 min at 37° C. Single cells were rinsed with iPS-Brew, and spun at 1,300 r.p.m. for 3 mins. The resulting cell pellet was suspended in iPS-Brew medium supplemented with Y-27632 (10 μM; Sigma-Aldrich; MO, Cat #Y0503) and the single cell suspension was seeded at ^˜1.5-2×10 s cells/cm2 on Geltrex-coated surfaces. Cultures were fed every day with iPS-Brew medium and differentiation was initiated 24 h following seeding, resulting in ^˜90% starting confluency. The cells were differentiated towards definitive endoderm using MCDB131 medium supplemented with 0.5% BSA (Sigma, Cat #10775835001), 100 ng/ml Activin A (Peprotech, Cat #120-14-300) and 25 ng/ml WNT3A (Peprotech, Cat #315-20) for the first day. For the next 2 days, the cells were treated with MCDB131 supplemented with 0.5% BSA and 100 ng/ml Activin A. For differentiation towards β cells, Rezania, et. al; 2014 β-cell differentiation protocol was used 14. In nutshell, the cells were differentiated towards primitive gut tube with MCDB131 supplemented with 0.5% BSA, 50 ng/ml of FGF7 (Peprotech, Cat #100-19-100) and 0.25 mM Vit.C (Sigma, Cat #120-14-300) for 2 days. For differentiation towards posterior foregut, the cells were further exposed to MCDB131 medium supplemented with 1xGlutamax (Gibco, Cat #A12860-01), 2% BSA (Cat #10775835001), 0.25 mM Vit. C (Sigma, Cat #A4544-25G), 50 ng/ml FGF7, 0.25 μM SANT-1 (Sigma, Cat #54572-5MG), 1 μM retinoic acid (Sigma, Cat #R2625-50MG), 100 nM LDN193189 (Sigma, Cat #04-0074), 1:200 ITS-X (Gibco, Cat #51500-056) and 200 nM TPB (Merk Millipore, Cat #565740-1MG) for 2 days. For the WNT inhibition experiment only, 1.25 μM of IWP2 (Tocris, Cat #3533-10) was added to the cultures. The cells were then further differentiated towards pancreatic endoderm using MCDB131 supplemented with 1xGlutamax, 10 mM final glucose concentration, 2% BSA, 0.25 mM Vit.C, 2 ng/ml FGF7, 0.25 μM SANT-1, 0.1 μM retinoic acid, 200 nM LDN193189, 1:200 ITS-X and 100 nM TPB for 3 days. […]

[2] = test system: PDX1+/NKX6.1+ PP2 cells derived from CD177+, CD275+ and CXCR4+ subpopulations; experiment: Inhibition of WNT secretion during gut tube patterning, FACS for PDX1+/NKX6.1+ PP2 cells from sorted ADE subpopulations; format: cell-based, human; conditions: after addition of IWP2 (1.25 μM) at S2, 2D culture
Method: A) Overview of differentiation protocol towards pancreatic progenitors where inhibition of WNT secretion is performed at […] stage using IWP2 B-D) FACS quantification (B) and immunocytochemistry (C-D) for the percentage of cells expressing
PDX1+/NKX6.1+ generated from CD177+-, CD275+- and CXCR4+-ADE before (B, C), Scale bars, 50 μm and after (B, D) the treatment with IWP2. Scale bars, 20 μm.
as §1, with “Vit.” for “Vit. C (Sigma, Cat #A4544-25G), 50 ng/ml FGF7, 0.25 μM SANT-1 (Sigma, Cat #54572-5MG), 1 μM retinoic acid (Sigma, Cat #R2625-50MG), 100 nM LDN193189 (Sigma, Cat #04-0074), 1:200 ITS-X (Gibco, Cat #51500-056) and 200 nM TPB (Merk Millipore, Cat #565740-1MG) for 2 days. For the WNT inhibition experiment only, 1.25 μM of IWP2 (Tocris, Cat #3533-10) was added to the cultures. The cells were then further differentiated towards pancreatic endoderm using MCDB131 supplemented with 1xGlutamax, 10 mM final glucose concentration, 2% BSA, 0.25 mM Vit.C, 2 ng/ml FGF7, 0.25 μM SANT-1, 0.1 μM retinoic acid, 200 nM LDN193189, 1:200 ITS-X and 100 nM TPB for 3 days.”

[3] = standard differentiation without inhibitor 21%

CC(C)Oc1ccc(-c2cnc3c(-c4ccnc5ccccc45)cnn3c2)cc1 [DMH1]
percentage of CD275+ ADE in the bulk CXCR4+ DE population ([1]; 4 μM DMH1 with 100 ng/ml AA, endoderm differentiation until D4, standard differentiation without inhibitor 21%): 14% | percentage of CD177+ ADE in the bulk CXCR4+ DE population ([1]; 4 μM DMH1 with 100 ng/ml AA, endoderm differentiation until D4, standard differentiation without inhibitor 35.5%): 80.5% | percentage of CD275+ DE differentiation [1, 3]: 54.0%

NC(=O)c1ccc(-c2nc(-c3ccc4c(c3)OCO4)c(-c3ccccn3)[nH]2)cc1 [SB431542]
percentage of CD275+ DE differentiation [1, 3]: 54.0%

Cc1ccc2nc(NC(=O)CSc3nc4c(c(=O)n3-c3ccccc3)SCC4)sc2c1 [IWP2]
percentage of PDX1+/NKX6.1+ PP2 cells derived from CD275+ ADE ([2]; without IWP2 approx. 30%): 50% | percentage of PDX1+/NKX6.1+ PP2 cells derived from CXCR4+ DE ([2]; without IWP2 approx. 45%): 75% | change in percentage of PDX1+/NKX6.1+ double positive PP2 cells in CD177+-derived PP2s ([2]; without IWP2 approx. 75%): No differences were observed
